From US4678810A, “Medical uses of halogenobenzohenone-oxime derivatives” (Institut de Recherches Chimiques et Biologiques of Appliques, priority 1983, dated 1987)
Values after ≈ are worked out from the molar mass of the structure shown.

Key:
[1] = system: Gram- strains such as Neisseria; test: Antibacterial activity in vitro, summary for some Gram- strains; assay type: cell-based
From the text: (§1) The antibacterial activity was studied in vitro according to the usual classical dilution techinque with respect to several strains, in order to determine the minimal inhibiting concentration (M.I.C.) i.e. the minimal bacteriostatic concentration.
(§2) The results thus obtained are tabulated in table II hereinafter, the strains used being those of the catalogues of the "Institut Pasteur" of Paris, France (abbreviation: CIP), the "Centre International de Distribution de Souches et d'Information sur les Types Microbiens de Lausanne" (abbreviation: La) and the "American Type Culture Collection" (abbreviation: ATCC).

[2] = parameters: species or system mice; details: mouse, in vivo
Procedure: (§3) Assays were performed on batches of mice (males and females) weighing each from 18 to 20 g and receiving the compounds to be tested at the doses of 0.5 g/kg, 0.8 g/kg, 1 g/kg, 2 g/kg, 3 g/kg and 4 g/kg per os in an aqueous medium containing 20 g/l of carboxymethylcellulose, the animals being observed during the 14 days following administration.

[3] = system: Streptococcus pyogenes CIP. 56.43; test: Antibacterial activity in vitro (MIC), dilution technique; assay type: cell-based
From the text: as §1, §2

[4] = system: Streptococcus faecalis CIP 55.142; test: as above; assay type: cell-based; details: Enterococcus faecalis, CIP55
From the text: as §1, §2

[5] = system: Streptococcus pyogenes CIP. 56.1; test: as above; assay type: cell-based
From the text: as §1, §2

[6] = system: Streptococcus pyogenes CIP. A 241; test: as above; assay type: cell-based; details: CIP.A241
From the text: as §1, §2

[7] = system: Staphylococcus aureus La 659; test: as above; assay type: cell-based; details: LA659
From the text: as §1, §2

[8] = system: Streptococcus pyogenes CIP. 56.41; test: as above; assay type: cell-based
From the text: as §1, §2

[9] = system: Diplococcus pneumoniae La 209; test: as above; assay type: cell-based; details: Streptococcus pneumoniae, LA209
From the text: as §1, §2

[10] = system: Diplococcus pneumoniae La 210; test: as above; assay type: cell-based; details: Streptococcus pneumoniae, LA210
From the text: as §1, §2

[11] = system: Streptococcus faecalis CIP 53.152; test: as above; assay type: cell-based; details: Enterococcus faecalis, CIP53
From the text: as §1, §2

[12] = system: Staphylococcus aureus La 636; test: as above; assay type: cell-based; details: LA636
From the text: as §1, §2

[13] = system: Streptococcus La 147; test: as above; assay type: cell-based; details: LA147
From the text: as §1, §2

[14] = system: Staphylococcus aureus La 634; test: as above; assay type: cell-based; details: LA634
From the text: as §1, §2

[15] = system: Bacillus subtilis ATCC 6633; test: as above; assay type: cell-based; details: ATCC6633
From the text: as §1, §2

[16] = system: Staphylococcus aureus London CIP A.238; test: as above; assay type: cell-based
From the text: as §1, §2

[17] = system: Streptococcus pyogenes CIP. 56.45; test: as above; assay type: cell-based
From the text: as §1, §2

[18] = system: Staphylococcus aureus ATCC 6538 P; test: as above; assay type: cell-based; details: ATCC6538
From the text: as §1, §2

[19] = system: acute infections of the otorhinolaryngological system and bronchopathies; test: Clinical assays in acute infections of the otorhinolaryngological system and bronchopathies; assay type: in vivo, human; details: humans, acute ENT infections and bronchopathies
Procedure: Clinical assays carried out on human beings suffering from infectious disease caused by Gram+ bacteriae and Neisseria Gram- bacteria gave fair and good results, especially when the pharmaceutical composition according to the invention which was administered suitably contained from 0.1 to 95% by weight of at least one compound of the formula I.
For oral administration, the composition is preferably formulated as tablets or gelatine-coated capsules, each tablet or capsule containing from 10 to 200 mg of the active ingredient. For the treatment of infections due to Gram+ bacteriae and Neisseria, such tablets or capsules are suitably administered to human patients at the rate of 2 to 8 tablets or capsules per day, for at least 4 days and preferably from 4 to 7 days, in particular for compound B.602.

[20] = Acute oral toxicity (DL-50), 14-day observation; details: mouse, in vivo, mice, per os, 14 days observation
Procedure: as §3

[21] = system: Gram+ strains; test: Antibacterial activity in vitro, summary for Gram+ strains; assay type: cell-based, Gram+ bacteriae; details: compared with B.11
From the text: as §1, §2

[22] = Tolerance: rectal temperature after oral administration; assay type: in vivo; details: mice, per os, from the dose of 2 g/kg
Procedure: as §3

[23] = cited from earlier work
[24] = Tolerance: weight / liver hypertrophy after oral administration; assay type: in vivo; details: mice, per os, from the dose of 0.8 g/kg
Procedure: as §3

[25] = Tolerance: diarrhoea after oral administration; assay type: in vivo; details: mice, per os
Procedure: as §3

[26] = system: Gram+ bacteriae; details: commercialized drug; cited from earlier work

Structure (SMILES)	MIC [3] [µg/mL]	MIC [4] [µg/mL]	MIC [5] [µg/mL]	MIC [6] [µg/mL]	MIC [7] [µg/mL]	MIC [8] [µg/mL]	MIC [9] [µg/mL]	MIC [10] [µg/mL]	MIC [11] [µg/mL]	MIC [12] [µg/mL]	MIC [13] [µg/mL]	MIC [14] [µg/mL]	MIC [15] [µg/mL]	MIC [16] [µg/mL]	MIC [17] [µg/mL]	MIC [18] [µg/mL]	LD50 at 336 h [20] [mg/kg]	further results
CC(C)(C)CC(C)(C)c1ccc(O)c(C(=NO)c2ccc(Cl)cc2Cl)c1 [Example 1, 2',4'-dichloro-2-hydroxy-5-(1,1,3,3-tetramethylbutyl)-benzophenone-oxime]	1 (≈ 2.54 µM)	2 (≈ 5.07 µM)	2 (≈ 5.07 µM)	2 (≈ 5.07 µM)	5 (≈ 12.7 µM)	3 (≈ 7.61 µM)	4 (≈ 10.1 µM)	3 (≈ 7.61 µM)	3 (≈ 7.61 µM)	4 (≈ 10.1 µM)	2 (≈ 5.07 µM)	3 (≈ 7.61 µM)	1 (≈ 2.54 µM)	1 (≈ 2.54 µM)	1 (≈ 2.54 µM)	4 (≈ 10.1 µM)	> 4000	activity against some Gram- strains [1]: active against some Gram- strains such as Neisseria; tolerance compared with B.11 [2]: better tolerated than B.11; clinical result as a bactericidal agent [19]: very interesting as a bactericidal agent; activity against Gram+ strains [21]: more active than B.11
CC(C)(C)CC(C)(C)c1ccc(O)c(Cc2ccc(Cl)cc2Cl)c1 [Clofoctol, 2-(2,4-dicholrobenzyl)-4-(1,1,3,3-tetramethylbutyl)-phenol]	2 (≈ 5.47 µM)	5 (≈ 13.7 µM)	3 (≈ 8.21 µM)	4 (≈ 10.9 µM)	6 (≈ 16.4 µM)	4 (≈ 10.9 µM)	4 (≈ 10.9 µM)	5 (≈ 13.7 µM)	6 (≈ 16.4 µM)	5 (≈ 13.7 µM)	7 (≈ 19.2 µM)	6 (≈ 16.4 µM)	4 (≈ 10.9 µM)	3 (≈ 8.21 µM)	2 (≈ 5.47 µM)	8 (≈ 21.9 µM)	2000	reduction of rectal temperature [22]: reduces the rectal temperature for 48 hours; hydrosolubility / hydrodispersibility [23]: not naturally hydrosoluble nor hydrodispersible; liver hypertrophy [24]: induces a slight liver hypertrophy; dose at which it begins to induce diarrhoea [25]: 800 mg/kg; effectiveness in infectious diseases caused by Gram+ bacteriae [26]: particularly effective
